Results taken from the NIST ThermoML archive (doi:10.1021/je500513b).

Experiment: mn = molality of the nth substance listed, in mol/kg
Details: for surface tension liquid-gas: Pendant drop shape; for electrical conductivity: 100 kPa, Liquid, Mettler Toledo inLab 710

CCCCCCCCCCCC[N+](C)(C)CCC[N+](C)(C)CCCCCCCCCCCC.[Br-].[Br-] + O
Details | electrical conductivity, 298.15 K [S/m] | electrical conductivity, 303.15 K [S/m] | electrical conductivity, 308.15 K [S/m] | surface tension liquid-gas, 298.15 K [mN/m]
m1 = 0.0001 | – | – | – | 60.28
m1 = 0.0002 | – | – | – | 51.37
m1 = 0.0004 | – | – | – | 41.67
m1 = 0.00057 | 0.0117 | 0.0131 | – | –
m1 = 0.0006 | – | – | – | 36.01
m1 = 0.00061 | 0.0126 | 0.0139 | – | –
m1 = 0.00064 | 0.0132 | 0.0146 | 0.0159 | –
m1 = 0.00067 | 0.0138 | 0.0152 | 0.0168 | –
m1 = 0.0007 | 0.0144 | 0.0159 | 0.0176 | 33.17
m1 = 0.00074 | 0.0151 | 0.0168 | 0.0184 | –
m1 = 0.00077 | 0.0156 | 0.0172 | 0.0191 | –
m1 = 0.0008 | 0.0161 | 0.0178 | 0.0196 | 32.87
m1 = 0.00083 | 0.0165 | 0.0185 | 0.0203 | –
m1 = 0.00085 | – | – | – | 32.79
m1 = 0.00087 | 0.0168 | 0.0191 | 0.021 | –
m1 = 0.0009 | – | – | – | 32.84
m1 = 0.00091 | 0.0171 | 0.0195 | 0.0216 | –
m1 = 0.00095 | 0.0175 | 0.02 | 0.0223 | –
m1 = 0.001 | 0.0179 | 0.0205 | 0.0228 | 32.76
m1 = 0.00105 | 0.0183 | 0.0209 | 0.0234 | –
m1 = 0.0011 | – | – | – | 32.75
m1 = 0.00111 | 0.0187 | 0.0212 | 0.024 | –
m1 = 0.00118 | 0.0191 | 0.0217 | 0.0244 | –
m1 = 0.0012 | – | – | – | 32.81
m1 = 0.00125 | 0.0195 | 0.0221 | 0.025 | –
m1 = 0.00134 | 0.0199 | 0.0225 | – | –
m1 = 0.00143 | 0.0203 | 0.0229 | – | –
m1 = 0.0015 | – | – | – | 32.59
m1 = 0.00154 | 0.0208 | 0.0235 | – | –
m1 = 0.0016 | 0.0211 | 0.0237 | – | –
m1 = 0.00167 | 0.0214 | 0.0242 | – | –
m1 = 0.00174 | 0.0217 | 0.0247 | – | –
m1 = 0.00182 | 0.0221 | 0.0251 | – | –
m1 = 0.00191 | 0.0225 | 0.0256 | – | –
m1 = 0.002 | 0.023 | 0.0263 | – | 32.62
